Laboratory results as given in patent publication US20170189391A1, “Protein kinase C inhibitor for treating triple-negative breast cancer” (Macau University of Science ang Technology, priority 2015, published 2017).

Assays:
non-TNBC cells [1] = experiment: Assessment of cell morphological changes (Hoechst 33258 staining); format: cell-based, human; settings: 24 hours
Experimental: (§1) Four Non-TNBC cell lines and four TNBC cell lines as mentioned above were treated with chelerythrine (CHE, 5 μM) for 24 hours. […] Reprehensive pictures are shown (400×). […] FIGS. 3C, 3D and 3E show the representative contour diagrams of FITC Annexin V/PI flow cytometry of cells. Fractions of apoptotic cells were quantified. Average values are calculated from three independent experiments (n=3). […] Apoptosis was analyzed by flow cytometry with Annexin V/PI staining. Representative contour diagrams and quantified data are shown. Average values are calculated from three independent experiments (n=3). Data is shown as mean±SD.
(§2) Cells were plated in 12-well plates (80,000-300,000 cells/well) and then treated with […] chelerythrine for 24 hours. After incubation, cells were collected, washed with PBS and stained with Hoechst 33258 (11.1 mg/ml) in buffered formalin solution containing 5.6% NP-40. Living and apoptotic cells were visualized through DAPI filter of fluorescence inverted microscope (Leica DM2500 Fluorescence Microscope) at ×400 magnification.

TNBC cells [2] = experiment: as above; format: cell-based, human; settings: 24 hours
Experimental: as §1, §2

TNBC cell lines = experiment: Western blotting of cleaved PARP (cPARP); format: cell-based, human; settings: TNBC compared with non-TNBC cell lines, after chelerythrine treatment
Experimental: as §1
Protein samples were prepared by adding RIPA buffer with protease inhibitor cocktail (Roche) to cells and diluted in SDS-PAGE protein sample buffer. Samples were heated for 5 minutes at 95° C. before fractionation on SDS-polyacrylamide gels. The proteins were then transferred to Immobilon P (Millipore) and incubated with primary antibodies overnight at 4° C. The membranes were then washed with TBST and incubated with the appropriate horseradish peroxidase-conjugated secondary antibodies at room temperature. Proteins were visualized with SuperSignal West Dura Extended Duration Substrate or SuperSignal West Pico Chemiluminescent Substrate (Thermo Scientific).

[3] = test system: TNBC cell lines (MDA-MB-231, BT-549, HCC1937 and MDA-MB-468); experiment: In vitro cell proliferation assay (SRB assay), four TNBC lines together; format: cell-based, human; settings: for cell growth: 5 mM (so in the source) chelerythrine
Experimental: The anti-proliferative effects of tested agents on breast cancer cell lines were assessed by sulforhodamine B (SRB) colorimetric assay as previously described. Briefly, cells were seeded in 96-well plates in a volume of […] at densities of 5,000˜40,000 cells per well. After overnight incubation at 37° C. in a humidified incubator with 5% CO2, 100 ml medium containing agents (2 X indicated concentrations) were added. […] The absorbency at 515 nm was measured using SpectraMax 190 microplate reader (Molecular Devices) after solubilizing the protein-bound dye with 200 ml 10 mM Tris base solution (pH 10.5). The IC50 value was defined as the concentration required for a 50% reduction in cell growth.
(§3) To test in vitro anti-proliferative activity of chelerythrine on breast cancer cells, four TNBC cell lines (MDA-MB-231, BT-549, HCC1937 and MDA-MB-468) and four non-TNBC cell lines (MCF7, ZR-75-1, SK-BR-3 and MDA-MB-453) were treated with a series of chelerythrine concentrations ranging from […] for 72 hours. […] On the contrary, the tested non-TNBC cell lines were relatively resistant to chelerythrine treatment on compared with the TNBC cell lines.

BT-549 [4] = experiment: In vitro cell proliferation assay (SRB assay); format: cell-based; settings: Homo sapiens; BT-549 (TNBC), 72-hour treatment
Experimental: (§4) The anti-proliferative effects of tested agents on breast cancer cell lines were assessed by sulforhodamine B (SRB) colorimetric assay as previously described. Briefly, cells were seeded in 96-well plates in a volume of […] at densities of 5,000˜40,000 cells per well. After overnight incubation at 37° C. in a humidified incubator with 5% CO2, 100 ml medium containing agents (2 X indicated concentrations) were added. After 72-hour treatment, attached cells were fixed with 50 ml cold 50% (w/v) trichloroacetic acid (TCA) for 1 hour at 4° C. and then stained with 100 ml 0.4% (w/v) SRB. The absorbency at 515 nm was measured using SpectraMax 190 microplate reader (Molecular Devices) after solubilizing the protein-bound dye with 200 ml 10 mM Tris base solution (pH 10.5). The IC50 value was defined as the concentration required for a 50% reduction in cell growth.
as §3

MDA-MB-468 [5] = experiment: In vitro cell proliferation assay (SRB assay); format: cell-based; settings: Homo sapiens; MDA-MB-468 (TNBC), 72-hour treatment
Experimental: as §4, §3

MCF7 = experiment: In vitro cell proliferation assay (SRB assay); format: cell-based; settings: Homo sapiens; MCF7 (Non-TNBC), 72-hour treatment
Experimental: as §4, §3

SK-BR-3 = experiment: In vitro cell proliferation assay (SRB assay); format: cell-based; settings: Homo sapiens; SK-BR-3 (Non-TNBC), 72-hour treatment
Experimental: as §4, §3

HCC1937 [6] = experiment: In vitro cell proliferation assay (SRB assay); format: cell-based; settings: Homo sapiens; HCC1937 (TNBC), 72-hour treatment
Experimental: as §4, §3

MDA-MB-231 [7] = experiment: In vitro cell proliferation assay (SRB assay); format: cell-based; settings: Homo sapiens; MDA-MB-231 (TNBC), 72-hour treatment
Experimental: as §4, §3

non-TNBC cells [8] = experiment: Colony formation assay; format: cell-based, human; settings: treatment for 48 hours, chelerythrine 5 μM (FIG. 1C)
Experimental: (§5) Four non-triple-negative breast cancer (Non-TNBC) cell lines (MCF7, ZR-75-1, SK-BR-3 and MDA-MB-453) and four triple-negative breast cancer (TNBC) cell lines (MDA-MB-231, BT549, HCC1937 and MDA-MB-468) were used to determine the growth inhibition effect of chelerythrine. […] The cell number at each chelerythrine concentration is represented as a percentage of control (treatment without chelerythrine). Average values are calculated from three independent experiments performed in duplicate (n=3). […] The cell number at each time point is represented as a percentage of control (treatment without chelerythrine). Average values are calculated from three independent experiments performed in duplicate (n=3). […] Representative colony formation assay plates are shown, which are quantified by counting colony number (n=4). Data is shown as mean±SD. […] Cells were then washed with PBS, plated in drug-free medium in 6-well plates at densities of 2,000 cells/well and incubated for 7-10 days in the absence of drug. Colonies were stained with 0.2% (w/v) crystal violet in buffered formalin for 10 minutes. The number of colonies was counted.

TNBC cells [9] = experiment: Colony formation assay; format: cell-based, human; settings: chelerythrine 5 μM (FIG. 1C)
Experimental: as §5

[10] = test system: non-TNBC cell lines (MCF7, ZR-75-1, SK-BR-3 and MDA-MB-453); experiment: In vitro cell proliferation assay (SRB assay), four non-TNBC lines together; format: cell-based, human
Experimental: as §4, §3

BT-549 [11] = experiment: Flow-cytometric analysis of cell cycle; format: cell-based, human; settings: BT-549, chelerythrine 5 mM (so in the source), 24 hours
Experimental: (§6) Four Non-TNBC cell lines and four TNBC cell lines as mentioned above were treated with chelerythrine (CHE, 5 μM) for 24 hours. […] Average values are calculated from three independent experiments (n=3). Data is shown as mean±SD.
(§7) Flow cytometric analyses were performed to define the cell cycle distribution […] after treatment with […] chelerythrine. Cells were harvested, washed twice with PBS, resuspended in 0.5 ml PBS (1,000,000˜2,000,000 cells/ml). Then 4 ml 70% ethanol was added and the mixture was kept at −20° C. for 2 hours to fix the cells. Cells were stained for total DNA content with a solution containing […] propidium iodide, 200 μg/ml DNase-free RNase A, and 0.1% triton X-100 in PBS for 30 minutes at room temperature. Cell cycle distribution was analyzed by flow cytometry (BD Bioscience). The percentages of the total cell population in the four different phases (Sub-G0/G1, G0/G1, S, G2/M) of cell cycle was determined using FlowJo software.

MDA-MB-468 [12] = experiment: Flow-cytometric analysis of cell cycle; format: cell-based, human; settings: MDA-MB-468, chelerythrine 5 mM (so in the source), 24 hours
Experimental: as §6, §7

non-TNBC cells [13] = experiment: Flow-cytometric analysis of cell cycle; format: cell-based, human; settings: chelerythrine 5 mM (so in the source), 24 hours
Experimental: as §6, §7

HCC1937 [14] = experiment: Flow-cytometric analysis of cell cycle; format: cell-based, human; settings: HCC1937, chelerythrine 5 mM (so in the source), 24 hours; 45.1% without treatment
Experimental: as §6, §7

MDA-MB-231 [15] = experiment: Flow-cytometric analysis of cell cycle; format: cell-based, human; settings: MDA-MB-231, chelerythrine 5 mM (so in the source), 24 hours
Experimental: as §6, §7

MDA-MB-468 [16] = experiment: Flow-cytometric analysis of apoptosis (Annexin V/PI); format: cell-based, human; settings: MDA-MB-468, 24 hours, chelerythrine 5 μM (FIG. 3)
Experimental: as §1
(§8) Cellular apoptosis was analyzed with BD Annexin V: Fitc Apoptosis Detection Kit I (BD Bioscience) by flow cytometry. Briefly cells were plated in 6-well plates (100,000˜400,000 cells/well) and treated with chelerythrine. At the indicated time point, cells were harvested, washed twice with cold PBS, and resuspended in 1X Binding Buffer at a concentration of 1,000,000 cells/ml. 100 μl cells were transferred to 1.5 ml conical tube and 5 μl FITC Annexin V and 5 μl propidium iodide were added. The mixture was gently vortexed and incubated at room temperature for 15 minutes in the dark, followed by adding 400 μl 1x Binding Buffer to each tube. Cells were filtered and analyzed by flow cytometry (BD Bioscience) within 1 hour. Total apoptotic cells (FITC Annexin V positive) were counted.

four non-TNBC cell lines = experiment: as above; format: cell-based, human; settings: same treatment, 24 hours
Experimental: as §1, §8

T-549 = experiment: as above; format: cell-based, human; settings: T-549 (so in the source), 24 hours, chelerythrine 5 μM (FIG. 3)
Experimental: as §1, §8

HCC1937 [17] = experiment: as above; format: cell-based, human; settings: HCC1937, 24 hours, chelerythrine 5 μM (FIG. 3)
Experimental: as §1, §8

MDA-MB-231 [18] = experiment: as above; format: cell-based, human; settings: MDA-MB-231, 24 hours, chelerythrine 5 μM (FIG. 3)
Experimental: as §1, §8

MDA-MB-453 = experiment: In vitro cell proliferation assay (SRB assay); format: cell-based, human; set-up: inhibitory effect at the highest concentration tested: dose or concentration left out as unconfirmed
Experimental: as §4, §3

ZR-75-1 = experiment: In vitro cell proliferation assay (SRB assay); format: cell-based, human; set-up: inhibitory effect at the highest concentration tested: dose or concentration left out as unconfirmed
Experimental: as §4, §3

all TNBC cell lines = experiment: Flow-cytometric analysis of cell cycle, all TNBC lines; format: cell-based, human; settings: upon chelerythrine treatment, 24 hours
Experimental: as §6, §7

With COc1ccc2c(c[n+](C)c3c4cc5c(cc4ccc23)OCO5)c1OC [chelerythrine] the apoptotic morphological changes (non-TNBC cells [1]) was “not in non-TNBC cells”, the apoptotic morphological changes (TNBC cells [2]) was “caused chromatin condensation and nuclear fragmentation” and the “cleaved nuclear poly (ADP-ribose) polymerase (cPARP), marker of apoptosis” value (TNBC cell lines) was “detection of the cleaved nuclear poly (ADP-ribose) polymerase”. The cell growth ([3]; 24 hour) was “significant reduction of cell growth”, the cell growth ([3]; 72 hour) was “almost died out” and the IC50 ([3]; Homo sapiens, range over MDA-MB-231, BT-549, HCC1937 and MDA-MB-468, 72 hours, read-out: IC50 values, growth of TNBC cell lines) was 2.6 to 4.2 µM. For the same compound, the IC50 (BT-549 [4]) was 2.6 µM, the IC50 (MDA-MB-468 [5]) was 4.2 µM and the IC50 (MCF7) was greater than 10 µM. The IC50 (SK-BR-3) was greater than 10 µM, the IC50 (HCC1937 [6]) was 3.6 µM and the IC50 (MDA-MB-231 [7]) was 3 µM. For the same compound, the colony formation ability (non-TNBC cells [8]) was “reserved largely of their colony formation ability”, the colony formation ability (TNBC cells [9]; treatment for 3 hours) was “dramatically decreased” and the Colony formation (TNBC cells [9]; treatment for 6 hours) was “almost no cells grew into colonies”. The “inhibition of cell growth” value ([10]; 5 mM (so in the source) chelerythrine, each time point, versus TNBC lines) was “much less inhibition of cell growth”, the IC50 ([10]; Homo sapiens, 72 hours, read-out: IC50 values of all of the four non-TNBC cell lines) was greater than 10 µM and the cell cycle progression (BT-549 [11]) was “no obvious changes”. The cell cycle arrest (MDA-MB-468 [12]) was “marked cell cycle arrest at G2/M phase”, the cell cycle distribution (non-TNBC cells [13]) was “basically unchanged” and the “percentage of cells in G0/G1 phase” value (HCC1937 [14]) was 52.9%. The cell cycle progression (MDA-MB-231 [15]) was “no obvious changes”, the “mean percentages of apoptotic cells” value (MDA-MB-468 [16]) was 35.3% and the “apoptosis induction / viability” value (four non-TNBC cell lines) was “remained viable”. The “mean percentages of apoptotic cells” value (T-549) was 51.0%, the “mean percentages of apoptotic cells” value (HCC1937 [17]) was 22.2% and the “mean percentages of apoptotic cells” value (MDA-MB-231 [18]) was 67.8%. The IC50 (MDA-MB-453; Homo sapiens, MDA-MB-453 (Non-TNBC), 72-hour treatment) was greater than 10 µM, the “inhibitory effect at the highest concentration tested” value (MDA-MB-453; MDA-MB-453, highest concentration tested, 72 hours) was “did not show any inhibitory effect” and the IC50 (ZR-75-1; Homo sapiens, ZR-75-1 (Non-TNBC), 72-hour treatment) was greater than 10 µM. For the same compound, the “inhibitory effect at the highest concentration tested” value (ZR-75-1; ZR-75-1, highest concentration tested (so in the source), 72 hours) was “did not show any inhibitory effect” and the “nuclei with sub-G0/G1 DNA content characteristic of apoptosis” value (all TNBC cell lines) was “substantial proportion”.
